We go through three compounds from US20250186503A1, “METHODS AND COMBINATIONS FOR TREATMENT AND T CELL MODULATION” (Juno Therapeutics, Inc., priority 2018, published 2025).

For data set [1], the system named is A549 CD19+ tumor spheroids. The experiment in a line: Rescue of chronically stimulated anti-CD19 CAR T cells rechallenged with A549 CD19+ tumor spheroids. It is filed as cell-based, human. How it is done:
Anti-CD19 CAR-expressing T cell compositions (containing CD4+ and CD8+ T cells combined at a 1:1 ratio) were generated from three different healthy donors substantially as described in Example 14. To subject cells to chronic stimulation conditions, the CAR+ T cells were incubated with plate-bound anti-idiotypic (anti-ID) antibody (see e.g. WO2018/023100), and incubated at 37° C. for a period of 6 days. […] The A549 CD19+tumor spheroids were labeled with a dye to permit monitoring of tumor cell lysis by microscopy during the assay. Freshly thawed anti-CD19 CAR-expressing T cells that had not been subjected to the chronic stimulatory conditions were incubated with the spheroids in parallel as controls. Cells were assessed at various times for cytolytic function, CAR T cell number and cytokine production.

The subject of data set [2] is CD19 directed CAR-expressing T cells. Briefly: Antigen-dependent cytokine production by CD19 directed CAR-expressing T cells. It is filed as cell-based, human. The note with it: compared to vehicle control or equimolar concentrations of lenalidomide. The source says: […]. […] Data represents the mean+/−S.D. across 3 experiments.
The conditions of data set [3]: given for five days followed by a two day rest period (5/7 days), subjects with DLBCL; cited from earlier work.
Data set [4] deals with Raji lymphoma tumor cells. Briefly: Raji-ffluc tumor xenograft model, CAR-expressing T cells in combination with Compound 1. Format: in vivo, NSG mice. How it is done: The anti-tumor efficacy of CAR-expressing T cells in combination with 3-(5-amino-2-methyl-4-oxo-4H-quinazolin-3-yl)-piperidine-2,6-dione (Compound 1) was assessed by monitoring tumors in a tumor xenograft model. Anti-CD19 CAR-expressing T cell compositions, containing CD4+ and CD8+ T cells combined at a 1:1 ratio, were generated substantially as described in Example 14. T cell compositions were generated from three different donors.
NOD.Cg.Prkdc^scidIL2rg^tmlWjl/SzJ (NSG) mice were injected intravenously (i.v.) with 0.5×10^6 Raji lymphoma tumor cells (an immortalized human B lymphocyte tumor cell line that expresses CD19) that were transfected with firefly luciferase (Raji-ffluc). Tumor engraftment was allowed to occur for 6 days and verified using bioluminescence imaging. On Day 7, mice either received no treatment, or a single intravenous (i.v.) injection of anti-CD19 CAR-expressing cells at a low dose (0.5×10^6 cells) or a high dose (1.0×10^6 cells). […] Tumor burden was assessed by bioluminescence every 10 days. For bioluminescence imaging, mice received intraperitoneal (i.p.) injections of luciferin substrate (CaliperLife Sciences, Hopkinton, MA) resuspended in PBS (15 μg/g body weight). The average radiance (p/s/cm^2/sr) was determined. Survival of mice treated as described above were assessed and compared until day 100 post-infusion of CAR-expressing T cells.

Data set [5] concerns the target T1, Ikaros (Homo sapiens, UniProt Q13422+Q96SW2).
T1 construct: intracellular levels of Ikaros in CD4+ CAR+ or CD8+ CAR+ cells; endogenous in cells; host or cells: primary human CD4+ and CD8+ T cells transduced with an anti-CD19 CAR (FMC63 scFv)
The experiment in a line: Intracellular Ikaros expression in CAR-expressing T cells. It is filed as cell-based. The source says:
FIGS. 31A-31C show flow cytometry analysis of intracellular Ikaros or Aiolos expression on both CD4+ anti-CD19 CAR-expressing T cells and CD8+ anti-CD19 CAR-expressing T cells. […] Median fluorescence intensity (MFI) values for Ikaros and Aiolos were normalized and calculated as a percentage relative to […] vehicle control.

Data set [6] concerns the target T1, Ikaros. Briefly: Intracellular Ikaros expression (flow cytometry MFI) in anti-CD19 CAR-expressing T cells after overnight incubation. It is filed as cell-based. How it is done: Transduced populations then were separately incubated in the presence of stimulating reagents for cell expansion.
(In general: Flow cytometry measures light scatter and fluorescence of single cells or particles in a stream.)

Data set [7] has as its system BCMA-expressing RPMI-8226 MM cells. Briefly: Rescue of chronically stimulated anti-BCMA CAR T cells rechallenged with RPMI-8226 MM cells. The note with it: 1 nm or 10 nM during rechallenge. It is filed as cell-based. How it is done: Studies were undertaken to determine whether Compound 2 rescued anti-BCMA CAR T cell function following chronic stimulation. To directly stimulate via CAR engagement to induce chronic stimulation of cells, anti-BCMA CAR T cells were stimulated with BCMA conjugated beads (diameter about 4.5 pm from a 50 μg/ml BCMA-conjugated bead composition, generated as described in Example 9) at a ratio of T cells to beads of 1:1. The cells were then incubated at 37° C., 5% CO2 for 7 days.
Cultures were incubated at 37° C., 5% CO2, and images were taken every 2 hours over 5-7 days with an Essen IncuCyte Zoom live-cell analysis system to track NucLightRed-positive target cells.

The test system of the next data set is K562-CD19 cells. The experiment in a line: Cytolytic activity of serially restimulated anti-CD19 CAR+ T cells against K562-CD19 cells. It is filed as cell-based, human. The note with it: 1 μM, 2nd and 4th restimulation. How it is done:
Cells from each condition were plated in triplicate. Representative cell killing observed at the 2nd and 4th restimulation for both donors is shown in FIG. 18A (as normalized to K562—CD19-Nuc-labeled cells at t=0) or in FIG. 18B (% cell killing compared to vehicle only control (set at 100%)).

The test system of the next data set is MM1.S cells. The experiment in a line: Serial restimulation of anti-BCMA CAR+ T cells with irradiated MM1.S target cells. Format: cell-based, human. More on the design: CAR-T expansion, each of six donors: dose or concentration left out as unconfirmed. How it is done: Anti-BCMA CAR+ T cells generated as described above were plated in triplicate at […] cells/well on 96-well plates.
Every 3-4 days (start of each new round), CAR T cells were counted. […] 8 rounds of stimulation were carried out during a 31 day culture period. For some rounds, at re-plating, cells were assessed for phenotypic markers via flow cytometry.
Culture conditions were reset every 3-4 days. Replating was maintained for 28 days or until the cell count was <50,000 cells. Experiments were performed in triplicate in 3 donors. […] Activation of CAR-T cells was measured on cells collected at days 4, 7, and 14 by flow cytometry for CD25.

SMILES strings stand for the structures.

T1 sequence (Q13422 whole entry): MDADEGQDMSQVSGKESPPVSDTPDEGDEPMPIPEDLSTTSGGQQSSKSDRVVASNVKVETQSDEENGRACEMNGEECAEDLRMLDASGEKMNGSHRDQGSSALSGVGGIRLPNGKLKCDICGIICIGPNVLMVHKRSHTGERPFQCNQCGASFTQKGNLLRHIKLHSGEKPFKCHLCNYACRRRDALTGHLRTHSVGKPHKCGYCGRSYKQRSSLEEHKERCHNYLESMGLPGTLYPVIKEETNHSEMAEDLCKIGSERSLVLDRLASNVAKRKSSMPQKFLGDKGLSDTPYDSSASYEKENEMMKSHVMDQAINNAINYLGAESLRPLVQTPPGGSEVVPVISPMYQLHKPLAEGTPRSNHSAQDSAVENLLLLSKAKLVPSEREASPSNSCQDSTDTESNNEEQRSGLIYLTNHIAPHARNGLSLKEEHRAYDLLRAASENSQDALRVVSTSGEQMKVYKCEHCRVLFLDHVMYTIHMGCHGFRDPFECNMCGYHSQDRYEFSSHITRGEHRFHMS
T1 sequence (Q96SW2 whole entry): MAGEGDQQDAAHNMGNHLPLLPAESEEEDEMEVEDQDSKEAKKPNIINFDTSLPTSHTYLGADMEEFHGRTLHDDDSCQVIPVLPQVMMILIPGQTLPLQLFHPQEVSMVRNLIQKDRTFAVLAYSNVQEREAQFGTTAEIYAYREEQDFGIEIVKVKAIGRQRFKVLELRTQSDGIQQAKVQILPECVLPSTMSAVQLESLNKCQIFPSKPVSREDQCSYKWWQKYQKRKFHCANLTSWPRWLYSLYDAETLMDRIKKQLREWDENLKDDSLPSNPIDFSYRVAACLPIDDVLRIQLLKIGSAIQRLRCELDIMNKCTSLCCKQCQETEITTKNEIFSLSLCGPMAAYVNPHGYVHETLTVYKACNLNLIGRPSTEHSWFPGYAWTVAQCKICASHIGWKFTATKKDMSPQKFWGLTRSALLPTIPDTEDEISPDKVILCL
T1 sequence (Q16531 whole entry partner): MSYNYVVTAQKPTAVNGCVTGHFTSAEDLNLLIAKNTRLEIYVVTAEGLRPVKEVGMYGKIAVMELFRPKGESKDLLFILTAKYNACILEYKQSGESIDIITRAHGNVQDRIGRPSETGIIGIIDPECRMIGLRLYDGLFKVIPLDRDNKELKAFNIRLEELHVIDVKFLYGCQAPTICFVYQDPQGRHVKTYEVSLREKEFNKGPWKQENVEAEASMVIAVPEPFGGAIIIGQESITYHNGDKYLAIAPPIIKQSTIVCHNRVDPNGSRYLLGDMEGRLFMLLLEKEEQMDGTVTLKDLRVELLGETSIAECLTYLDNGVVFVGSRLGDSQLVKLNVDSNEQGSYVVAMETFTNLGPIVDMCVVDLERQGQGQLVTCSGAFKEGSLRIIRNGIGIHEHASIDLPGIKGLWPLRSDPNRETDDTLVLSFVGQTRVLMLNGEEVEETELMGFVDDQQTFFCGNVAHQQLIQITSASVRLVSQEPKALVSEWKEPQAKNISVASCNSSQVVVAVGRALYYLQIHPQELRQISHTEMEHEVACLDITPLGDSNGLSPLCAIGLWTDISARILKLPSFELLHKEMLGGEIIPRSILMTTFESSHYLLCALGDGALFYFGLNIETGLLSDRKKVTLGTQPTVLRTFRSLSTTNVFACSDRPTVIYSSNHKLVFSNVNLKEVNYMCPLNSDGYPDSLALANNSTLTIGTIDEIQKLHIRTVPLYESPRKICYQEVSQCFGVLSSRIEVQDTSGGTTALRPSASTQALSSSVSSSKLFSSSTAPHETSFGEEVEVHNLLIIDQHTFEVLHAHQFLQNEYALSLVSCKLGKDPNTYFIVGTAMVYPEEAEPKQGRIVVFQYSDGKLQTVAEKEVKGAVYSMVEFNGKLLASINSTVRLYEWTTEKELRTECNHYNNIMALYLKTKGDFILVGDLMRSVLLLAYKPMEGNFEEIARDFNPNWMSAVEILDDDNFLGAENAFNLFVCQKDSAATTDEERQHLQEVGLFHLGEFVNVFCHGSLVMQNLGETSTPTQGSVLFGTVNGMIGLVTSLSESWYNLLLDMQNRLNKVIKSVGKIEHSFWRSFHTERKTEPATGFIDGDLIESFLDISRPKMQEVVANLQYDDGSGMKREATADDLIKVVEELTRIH

For orientation: EC50 means the concentration giving half of the maximal effect. For the compound `Cc1nc2cccc(N)c2c(=O)n1C1CCC(=O)NC1=O` (centres unmarked) [Compound 1, 3-(5-amino-2-methyl-4-oxo-4H-quinazolin-3-yl)-piperidine-2,6-dione], in [1] (Homo sapiens, chronically stimulated CAR-T cells, A549 CD19+ spheroids, read-out: EC50 for effect on tumor volume reduction), the EC50 was 127 nM. The “numbers of CAR-T cells” value in data set [1] (day 5, 1 μM, fresh and chronically stimulated CAR-T cells) is listed as “increase expansion and/or survival of CAR-T cells”. For the same compound, the “cytokine production (IFN-γ, IL-2, TNF-α)” value in data set [1] (day 5, long-term stimulated CAR-expressing T cells) is “increased relative to co-cultures containing vehicle control”. The “antigen-specific cytokine production and tumor reduction by chronically stimulated CAR-T cells” value in [1] (rescue treatment) is “restore antigen-specific cytokine production and tumor reduction”. In addition, in [2], the “levels of IFNγ and IL-2” value was “increased levels”. Further, the “maximum tolerated dose (MTD)” value in data set [3] is 4 mg. In addition, in data set [4] (0.3 mg/kg i.p. once a day, Concurrent and Delayed groups), the “tumor burden compared to CAR-expressing cells alone” value is “reduce tumor burden”. The “percent survival compared to anti-CD19 CAR-T cells only” value in data set [4] (delayed or concurrent, low and high CAR-T dose) is reported as “greater percent survival”. Further, at Ikaros [5], the “Ikaros expression in CAR-expressing T cells” value is given as “decreased in a concentration dependent manner” and the “magnitude of Ikaros loss compared with lenalidomide” value is on record as “greater”. Besides, the “reduction in Ikaros expression compared to lenalidomide” value at Ikaros [6] is listed as “greater reduction”. Also, on Ikaros [6] (CD4+ and CD8+ anti-CD19 CAR-expressing T cells), the “intracellular Ikaros expression” value is given as “concentration-dependent decrease”.
With `O=C1CC[C@H](N2Cc3c(OCc4ccc(CN5CCOCC5)cc4)cccc3C2=O)C(=O)N1` [Compound 2, (S)-3-[4-(4-morpholin-4-ylmethyl-benzyloxy)-1-oxo-1,3-dihydro-isoindol-2-yl]-piperidine-2,6-dione], the “cytolytic activity of chronically stimulated anti-BCMA CAR T cells” value in [7] (0.3:1 E:T) is “improvement in cytolytic activity”. Further, the “production of IFN-gamma, IL-2 or TNF-alpha” value in data set [7] (24 hours) was “increased production”.
With `Nc1cccc2c1CN(C1CCC(=O)NC1=O)C2=O` (centres unmarked) [lenalidomide, 3-(4-amino-1-oxo-1,3-dihydro-2H-isoindol-2-yl)piperidine-2,6-dione], the “anti-CD19 CAR+ T cell cytolytic activity” value in the data set on K562-CD19 cells is “decrease”. Besides, the “target cell killing by anti-BCMA CAR+ T cells by day 6” value in the data set on RPMI-8226 (1 μM or 10 μM, E:T 0.3:1, vs absence of lenalidomide) was “greater degree of target cell killing”. Also, in the data set on RPMI-8226 (three healthy donors and one IMiD-refractory patient), the “treatment effect on CAR T cytolytic activity in co-culture with RPMI-8226” value is “donor-dependent”. For the same compound, the “projected cell counts over 28 days” value in the data set with MM1.S cells (0.1 μM, 3 donors, relative to controls) was “increased”. Moreover, in the data set on MM1.S cells (0.1 μM, repeated stimulation), the “CAR T CD25 expression” value was “significant increase”; the “IL-2, IFN-γ and TNF-α production in the media” value was “significant increase”. In the data set with MM1.S cells (0.01-10 μM, E:T 1:2, all concentrations), the “expansion of anti-BCMA CAR T cells by day 14” value is reported as “increased expansion”. The “expansion of cells expressing two different human anti-BCMA CARs” value with MM1.S cells (beginning between day 21 and day 28) is recorded as “increase expansion”. For the same compound, the “CAR-T expansion, each of six donors” value in the data set with MM1.S cells (concentration of lenalidomide) is reported as “increase or no change”.
